Test results from paper PMC3606385 (PLoS ONE, 2013).
Where two headings read alike, the source gives them in different places.

Experiments:
Rat 11β-HSD1 [1] = biological target: T1, Rat 11β-HSD1 (Rattus norvegicus, UniProt P16232); assay: 11β-HSD1 assay in adult rat testis microsomes; type: biochemical; conditions: microsomes, screening
T1 construct: endogenous in cells; host or cells: primary adult Sprague-Dawley rat Leydig cells
Protocol: (§1) Rats were euthanized by CO2, and livers, testes and kidneys were collected. Rat liver, testis and kidney microsomes were prepared as described previously. In brief, rat liver and kidney were homogenized in […] PBS buffer containing 0.25 M sucrose, and nuclei and large cell debris were removed by centrifugation at 1500× g for 10 min. The post-nuclear supernatants were centrifuged twice at 105,000×g, the resultant microsomal pellets were resuspended. Protein contents were measured by Bio-Rad Dye Reagent Concentrate (Cat.#500-0006). Microsomes were used for measurement of 11β-HSD1 and 11β-HSD2 activities.
(§2) The rat testis and liver or human liver microsomes were used for 11β-HSD1 assay. 11β-HSD1 activity was performed in the microsome according to a previously described method. […] 2 µg microsomes were added to each tube to initiate the reaction and the reaction mixture was incubated for up to 2 hrs, during which the reaction is within the linear range. The rest procedure was similar to 11β-HSD1 assay in intact cells.
(§3) The IC50 was determined by adding different concentrations of each compound in the 11β-HSD1 or 11β-HSD2 reaction as described. The mode of inhibition was assayed by adding various concentrations of steroid substrates in the presence of an inhibitor as described.

Human 11β-HSD1 [2] = biological target: T2, Human 11β-HSD1 (Homo sapiens, UniProt P28845); assay: 11β-HSD1 assay in microsomes from CHOP cells transfected with human HSD11B1; type: biochemical; conditions: microsomes, screening
T2 construct: expressed in transfected cells; host or cells: CHOP cells (transient, FuGENE)
T2 sequence (P28845 whole entry): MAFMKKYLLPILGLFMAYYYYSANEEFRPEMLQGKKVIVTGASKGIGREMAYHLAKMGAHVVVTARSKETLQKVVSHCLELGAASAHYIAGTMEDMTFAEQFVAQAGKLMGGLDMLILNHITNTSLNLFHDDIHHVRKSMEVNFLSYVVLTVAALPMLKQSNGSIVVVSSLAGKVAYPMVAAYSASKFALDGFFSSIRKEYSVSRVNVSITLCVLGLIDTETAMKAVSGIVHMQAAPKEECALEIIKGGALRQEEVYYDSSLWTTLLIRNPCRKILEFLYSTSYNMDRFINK
Protocol: (§4) An expression plasmid was constructed to express human 11β-HSD1 (HSD11B1) cDNA in pcDNA I expression vector from its original human HSD11B1 vector (pBluescriptSK+).[15]. The Escherichia coli transformants carrying an insert were selected by colony hybridization, and a clone with the insert in the correct orientation relative to the vector T7 promoter was identified by restriction mapping. All transfections were carried out on 80% confluent cultures in 12-well plates. Aliquots of 1 µg HSD11B1 pcDNA I were transfected into mammalian CHOP cells with the FuGENE Transfection Reagent (Roche) according to manufacturer's protocol. Cells were allowed to grow for 24 hours in media containing 10% fetal bovine serum. Then media were removed and cells were harvested for 11β-HSD1 activity assay.
as §2, §3

Human 11β-HSD2 = biological target: T3, Human 11β-HSD2 (Homo sapiens, UniProt P80365); assay: 11β-HSD2 assay in human kidney microsomes; type: biochemical; conditions: for IC50: human kidney microsomes, read-out: IC50 (nM) Human 11β-HSD2
T3 construct: tissue Gentest (Woburn, MA); host or cells: human kidney microsomes
T3 sequence (P80365 1-405): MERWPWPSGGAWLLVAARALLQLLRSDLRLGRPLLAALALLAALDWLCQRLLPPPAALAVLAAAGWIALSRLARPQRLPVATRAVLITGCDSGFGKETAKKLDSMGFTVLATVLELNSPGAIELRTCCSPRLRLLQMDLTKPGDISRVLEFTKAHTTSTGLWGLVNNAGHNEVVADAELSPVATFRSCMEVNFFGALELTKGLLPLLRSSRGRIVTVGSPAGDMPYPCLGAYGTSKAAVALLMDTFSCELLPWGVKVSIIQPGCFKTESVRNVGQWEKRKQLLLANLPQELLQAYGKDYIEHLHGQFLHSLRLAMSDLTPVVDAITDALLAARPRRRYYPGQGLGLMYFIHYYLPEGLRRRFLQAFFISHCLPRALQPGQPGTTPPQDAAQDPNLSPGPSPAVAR
Protocol: (§5) The rat and human kidney microsomes were used for 11β-HSD2 sources. 11β-HSD2 activity was performed in the microsome according to a previously described method. In brief, the assay tubes contained 25 nM substrate CORT (for rat) or cortisol (for human), spiked with 30,000 cpm their respective ^3H-11β-hydroxyl steroid, 0.2 mM NAD+ and 0.1 mM DTT in the PBS buffer. 8 (rat) or 20 (human) µg kidney microsomes were added to each tube to initiate the reaction and the reaction mixture was incubated for up to 3 hrs, during which the reaction is within the linear range. The rest procedure was similar to 11β-HSD1 assay. The percentage conversion of CORT to 11DHC or cortisol to cortisone was calculated by dividing the radioactive counts identified as 11keto-steroids by the total counts.
as §3

Rat 11β-HSD2 = biological target: T4, Rat 11β-HSD2 (Rattus norvegicus, UniProt P50233); assay: 11β-HSD2 assay in rat kidney microsomes; type: biochemical; conditions: for IC50: rat kidney microsomes
T4 construct: from tissue; host or cells: rat kidney microsomes
T4 sequence (P50233 1-400): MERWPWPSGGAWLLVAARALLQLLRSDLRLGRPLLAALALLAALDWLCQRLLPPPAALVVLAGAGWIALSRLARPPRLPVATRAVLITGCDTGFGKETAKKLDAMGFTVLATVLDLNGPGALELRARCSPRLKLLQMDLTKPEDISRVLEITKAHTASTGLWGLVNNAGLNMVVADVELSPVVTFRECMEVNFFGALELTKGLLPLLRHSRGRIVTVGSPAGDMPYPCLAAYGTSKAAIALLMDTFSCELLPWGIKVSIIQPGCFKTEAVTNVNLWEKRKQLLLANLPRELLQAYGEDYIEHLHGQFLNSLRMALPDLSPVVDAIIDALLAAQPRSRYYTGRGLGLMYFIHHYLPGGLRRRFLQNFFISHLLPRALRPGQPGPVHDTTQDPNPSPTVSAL
Protocol: as §1
as §5, with “In brief, the assay tubes contained 25 nM substrate CORT (for rat) or cortisol (for human), spiked with 30,000 cpm their respective ^3H-11β-hydroxyl steroid, 0.2 mM NAD+ and 0.1 mM DTT in the PBS buffer.” left out
as §3

Rat 11β-HSD1 [3] = biological target: T1, Rat 11β-HSD1; assay: 11β-HSD1 assay in intact rat Leydig cells; type: cell-based; conditions: for Rat 11β-HSD1 Potency to Curcumin (fold) / IC50: intact rat Leydig cells; for Rat 11β-HSD1 Potency to Curcumin (fold): relative to curcumin; for IC50: read-out: Rat 11β-HSD1 IC50 (nM) in Leydig cells
Protocol: Rat Leydig cells contain the highest 11β-HSD1 activity in all cell types of rat tissues, and were used for rat 11β-HSD1 enzyme sources. Purified rat Leydig cells were obtained from 90-day-old Sprague-Dawley rats by collagenase digestion of the testes followed by Percoll density centrifugation of the cell suspension, according to the previously described method. […] The purity of cell fractions was evaluated by histochemical staining for 3β-hydroxysteroid dehydrogenase activity with […] etiocholanolone as the steroid substrate.
(§6) 11β-HSD1 reductase activity was performed in intact cells using endogenous cofactor NADPH as described previously. […] 25×10^3 cells were added to each tube to initiate the reaction and the reaction mixture was incubated for up to 2 hrs, during which the reaction is within the linear range. At the end of reaction, the reaction was stopped by adding 2 ml ice-cold ether. The steroids were extracted, and the organic layer was dried under nitrogen. The steroids were separated chromatographically on thin layer plates in chloroform and methanol (90∶10, v/v), and the radioactivity was measured using a scanning radiometer (System AR2000, Bioscan Inc., Washington, DC) as described previously. The percentage conversion of 11DHC to CORT or cortisone to cortisol was calculated by dividing the radioactive counts identified as 11-OH-steroids by the total counts.
as §3

Human 11β-HSD1 [4] = biological target: T2, Human 11β-HSD1; assay: 11β-HSD1 assay in intact CHOP cells transfected with human HSD11B1; type: cell-based; conditions: for Human 11β-HSD1 Potency to Curcumin (fold): CHOP cells transfected with human HSD11B1, relative to curcumin
Protocol: as §4, §6, §3

[5] = CHOP cells transfected with human HSD11B1, read-out: Human 11β-HSD1 IC50 (nM) in CHOP cells

T1 sequence (P16232 whole entry): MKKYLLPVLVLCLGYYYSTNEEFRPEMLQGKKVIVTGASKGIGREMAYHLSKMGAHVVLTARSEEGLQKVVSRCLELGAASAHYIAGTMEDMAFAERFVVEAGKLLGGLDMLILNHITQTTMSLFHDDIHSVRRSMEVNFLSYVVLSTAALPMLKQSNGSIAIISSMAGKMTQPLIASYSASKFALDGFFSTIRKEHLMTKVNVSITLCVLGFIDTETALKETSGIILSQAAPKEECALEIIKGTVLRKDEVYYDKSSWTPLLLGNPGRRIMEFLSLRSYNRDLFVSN

IC50 (Human 11β-HSD2)	IC50 (Rat 11β-HSD2)	Rat 11β-HSD1 Potency to Curcumin (fold) (Rat 11β-HSD1 [3])	IC50 (Rat 11β-HSD1 [3])	Human 11β-HSD1 Potency to Curcumin (fold) (Human 11β-HSD1 [4])	IC50 (Human 11β-HSD1 [4]; [5])	Inhibition of human 11β-HSD2 at 100 µM (Human 11β-HSD2)	Inhibition of rat 11β-HSD2 at 100 µM (Rat 11β-HSD2)	Inhibition of rat 11β-HSD1 at 100 μM (Rat 11β-HSD1 [3]; 100 μM, intact cells)	Inhibition of human 11β-HSD1 at 100 μM (Human 11β-HSD1 [4]; 100 μM, intact cells)	IC50 (Human 11β-HSD1 [4]; intact CHOP cells transfected with human HSD11B1, read-out: IC50 human 11β-HSD1 in intact cells)	SMILES	Inhibitory effect against rat 11β-HSD1 in nutraceutical screen (Rat 11β-HSD1 [1])	Inhibitory effect against human 11β-HSD1 in nutraceutical screen (Human 11β-HSD1 [2])
											COc1ccc2cc3[n+](cc2c1OC)CCc1cc2c(cc1-3)OCO2 [berberine]	only curcumin (compound 1) showed inhibitory effects	only curcumin (compound 1) showed inhibitory effects
> 100000 nM	> 100000 nM	1.38 fold	4210 nM	2.31 fold	995 nM						O=C(/C=C/c1ccc(Br)o1)/C=C/c1ccc(Br)o1 [compound 2]		
19600 nM	> 100000 nM	50.75 fold	114 nM	12.54 fold	183 nM						Cc1ccsc1/C=C/C(=O)/C=C/c1sccc1C [compound 4, (1E,4E)-1,5-bis(3-methylthiophen-2-yl) penta-1,4-dien-3-one]		
> 100000 nM	> 100000 nM	1.85 fold	3130 nM	1.73 fold	1330 nM						O=C1/C(=C/c2ccc(Br)o2)CC/C1=C\c1ccc(Br)o1 [compound 7]		
> 100000 nM	> 100000 nM	2.17 fold	2670 nM	20.68 fold	111 nM	did not inhibit	did not inhibit				Cc1ccc(/C=C2\CC/C(=C\c3ccc(C)s3)C2=O)s1 [compound 8]		
> 100000 nM	> 100000 nM		> 100000 nM		> 100000 nM			did not inhibit	did not inhibit		Cc1ccsc1/C=C1\CC/C(=C\c2sccc2C)C1=O [compound 9, (1E,4E)-1,5-bis(3-methylthiophen-2-yl) cyclopentanone]		
> 100000 nM	> 100000 nM		> 100000 nM		> 100000 nM						Cn1cccc1/C=C1\CC/C(=C\c2cccn2C)C1=O [compound 10]		
> 100000 nM	> 100000 nM	5.51 fold	1050 nM	10.20 fold	225 nM	did not inhibit	did not inhibit				O=C1/C(=C/c2cccs2)CC/C1=C\c1cccs1 [compound 11]		
> 100000 nM	> 100000 nM	0.54 fold	10800 nM	0.75 fold	3050 nM						O=C1/C(=C/c2ccc(Br)o2)CCC/C1=C\c1ccc(Br)o1 [compound 12]		
> 100000 nM	> 100000 nM	0.48 fold	11900 nM	0.50 fold	4590 nM						Cc1ccc(/C=C2\CCC/C(=C\c3ccc(C)s3)C2=O)s1 [compound 13]		
> 100000 nM	> 100000 nM	0.49 fold	11800 nM	1.09 fold	2100 nM						Cn1cccc1/C=C1\CCC/C(=C\c2cccn2C)C1=O [compound 15]		
> 100000 nM	> 100000 nM	2.27 fold	2550 nM	0.64 fold	3570 nM					3570 nM	O=C1/C(=C/c2cccs2)CCC/C1=C\c1cccs1 [compound 16, (1E,4E)-1,5-bis(thiophen-2-yl) cyclohexanone]		
											COc1ccc(-c2oc3c(CC=C(C)C)c(O[C@@H]4O[C@H](CO)[C@@H](O)[C@H](O)[C@H]4O)cc(O)c3c(=O)c2O[C@@H]2O[C@@H](C)[C@H](O)[C@@H](O)[C@H]2O)cc1 [icariin]	only curcumin (compound 1) showed inhibitory effects	only curcumin (compound 1) showed inhibitory effects
